The record followed here is PubChem BioAssay AID328 (DTP/NCI, 2004).

Values joined by “and” are separate entries in the source; they are usually repeats but may differ in a detail not shown here. Equal values may be shown once. Inconclusive results and toxic doses are left out.

The test system of the assay is BDF1 mice, P388 leukemia ip, median survival T/C. Nature of the assay: NCI In Vivo Anticancer Drug Screen. Data for tumor model P388 Leukemia (intraperitoneal) in B6D2F1 (BDF1) mice. As to conditions: endpoint: median survival time, higher = longer survival. In a few lines:
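Reported as T/C, where T is the survival measurement in dosed animals and C the same measurement in vehicle controls.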

The mark [1] stands for this setting: dose: 100.0 mg/kg/injection, schedule: Q01DX009 (ip), vehicle: Klucel (hydroxypropylcellulose) (HPC).
[2] abbreviates: dose: 200.0 mg/kg/injection, schedule: Q01DX009 (ip), vehicle: Klucel (hydroxypropylcellulose) (HPC).
Where [3] appears, read: dose: 400.0 mg/kg/injection, schedule: Q01DX009 (ip), vehicle: Klucel (hydroxypropylcellulose) (HPC).
Where [4] appears, read: dose: 25.0 mg/kg/injection, schedule: Q01DX009 (ip), vehicle: saline with Tween-80.
The mark [5] stands for this setting: dose: 50.0 mg/kg/injection, schedule: Q01DX009 (ip), vehicle: saline with Tween-80.
Setting [6] is: dose: 100.0 mg/kg/injection, schedule: Q04DX003 (ip), vehicle: saline with Tween-80.
Setting [7] is: dose: 200.0 mg/kg/injection, schedule: Q04DX003 (ip), vehicle: saline with Tween-80.
Where [8] appears, read: dose: 400.0 mg/kg/injection, schedule: Q04DX003 (ip), vehicle: saline with Tween-80.
Where [9] appears, read: dose: 100.0 mg/kg/injection, schedule: Q01DX009 (ip), vehicle: saline with Tween-80.
Where [10] appears, read: dose: 200.0 mg/kg/injection, schedule: Q01DX009 (ip), vehicle: saline with Tween-80.
The mark [11] stands for this setting: dose: 100.0 mg/kg/injection, schedule: Q04DX003 (ip), vehicle: Klucel (hydroxypropylcellulose) (HPC).
Where [12] appears, read: dose: 200.0 mg/kg/injection, schedule: Q04DX003 (ip), vehicle: Klucel (hydroxypropylcellulose) (HPC).

For the compound `CCOP(=O)(C/C(=N\Nc1ccc([N+](=O)[O-])cc1[N+](=O)[O-])c1ccccc1)c1ccccc1` (stereo not drawn), the T/C was 100 % of control (dose: 25.0 mg/kg/injection, schedule: Q01DX001 (ip), vehicle: saline with Tween-80); 104 % of control (dose: 50.0 mg/kg/injection, schedule: Q01DX001 (ip), vehicle: saline with Tween-80); 95 % of control (dose: 100.0 mg/kg/injection, schedule: Q01DX001 (ip), vehicle: saline with Tween-80).

As to `O=C(O)c1ccc(NS(=O)(=O)Cc2ccccc2)cc1`, the T/C runs as follows: under setting [1], 123 % of control; under setting [2], 123 % of control; under setting [3], 123 % of control.

Regarding `CC1NC(=O)OC1C(C)(C)C` (stereo not drawn), the T/C reads like this: (dose: 12.5 mg/kg/injection, schedule: Q01DX009 (ip), vehicle: saline with Tween-80) 88 % of control; under setting [4], 98 % of control; under setting [5], 86 % of control and 95 % of control.

On to `CC(=O)c1c(-c2ccccc2)noc1C`, for which the T/C reads like this: under setting [6], 98 % of control; under setting [7], 90 % of control; under setting [8], 100 % of control.

In the case of `Nc1cc(=O)n(-c2ccccc2)[nH]1`, the T/C under setting [5] is 105 % of control, the T/C under setting [9] is 102 % of control and the T/C under setting [10] is 109 % of control.

Take `CS(C)=O.CS(C)=O.[Cl][Sn]([Cl])([Cl])[Cl]`: the T/C is 105 % of control (dose: 37.5 mg/kg/injection, schedule: Q01DX009 (ip), vehicle: Klucel (hydroxypropylcellulose) (HPC)); 100 % of control (dose: 75.0 mg/kg/injection, schedule: Q01DX009 (ip), vehicle: Klucel (hydroxypropylcellulose) (HPC)); 104 % of control under setting [11]; 100 % of control (dose: 150.0 mg/kg/injection, schedule: Q01DX009 (ip), vehicle: Klucel (hydroxypropylcellulose) (HPC)); 90 % of control under setting [12].

On to `CCCCOCNc1ncccn1`, for which the T/C reads like this: under setting [5], 100 % of control and 105 % of control; under setting [9], 98 % of control and 112 % of control; under setting [10], 100 % of control.

In the case of `COc1ccc(CN2CCCN(Cc3ccc(OC)cc3)S2)cc1`, the T/C was 92 % of control under setting [5], 101 % of control under setting [9] and 110 % of control under setting [10].

Consider `COc1cc2cc(c1Cl)N(C)C(=O)C[C@H](OC(=O)CBr)[C@]1(C)O[C@@H]1[C@H](C)[C@@H]1C[C@@](O)(NC(=O)O1)[C@H](OC)C=C/C=C(\C)C2`, for which the T/C reads like this: (dose: 0.8 micrograms/kg/injection, schedule: Q01DX009 (ip), vehicle: saline + alcohol) 153 % of control; (dose: 1.5 micrograms/kg/injection, schedule: Q01DX009 (ip), vehicle: saline + alcohol) 170 % of control; (dose: 3.1 micrograms/kg/injection, schedule: Q01DX009 (ip), vehicle: saline + alcohol) 180 % of control; (dose: 6.2 micrograms/kg/injection, schedule: Q01DX009 (ip), vehicle: saline + alcohol) 183 % of control; (dose: 12.5 micrograms/kg/injection, schedule: Q01DX009 (ip), vehicle: saline + alcohol) 153 % of control and 200 % of control; (dose: 25.0 micrograms/kg/injection, schedule: Q01DX009 (ip), vehicle: saline + alcohol) 162 % of control and 210 % of control. Further, the T/C is 189 % of control and 210 % of control (dose: 50.0 micrograms/kg/injection, schedule: Q01DX009 (ip), vehicle: saline + alcohol); 232 % of control and 120 % of control (dose: 100.0 micrograms/kg/injection, schedule: Q01DX009 (ip), vehicle: saline + alcohol).

Regarding `Oc1c(-c2ccccc2)cc(-[n+]2c(-c3ccccc3)cc(-c3ccccc3)cc2-c2ccccc2)cc1-c1ccccc1`, the T/C was 100 % of control (dose: 0.38 mg/kg/injection, schedule: Q01DX009 (ip), vehicle: saline with Tween-80); 108 % of control (dose: 0.75 mg/kg/injection, schedule: Q01DX009 (ip), vehicle: saline with Tween-80); 108 % of control (dose: 1.5 mg/kg/injection, schedule: Q01DX009 (ip), vehicle: saline with Tween-80).

Take `Nc1nnc2cc(F)ccc2n1`: the T/C was 100 % of control (dose: 50.0 mg/kg/injection, schedule: Q01DX009 (ip), vehicle: Klucel (hydroxypropylcellulose) (HPC)); 112 % of control under setting [1]; 102 % of control under setting [2].

In the case of `CCOCN(COCC)c1ccc(C)cc1`, the T/C is, setting by setting: under setting [5], 97 % of control; under setting [9], 104 % of control; under setting [10], 97 % of control.

Turning to `COC(=O)c1ccc(Cl)c(Cl)c1`, the T/C runs as follows: under setting [4], 101 % of control; (dose: 25.0 mg/kg/injection, schedule: Q04DX003 (ip), vehicle: saline with Tween-80) 102 % of control; under setting [5], 116 % of control; (dose: 50.0 mg/kg/injection, schedule: Q04DX003 (ip), vehicle: saline with Tween-80) 94 % of control and 100 % of control and 108 % of control; under setting [6], 97 % of control and 98 % of control and 103 % of control; (dose: 150.0 mg/kg/injection, schedule: Q04DX003 (ip), vehicle: saline with Tween-80) 98 % of control. In addition, the T/C under setting [7] was 108 % of control and 112 % of control; the T/C (dose: 300.0 mg/kg/injection, schedule: Q04DX003 (ip), vehicle: saline with Tween-80) was 110 % of control; the T/C under setting [8] was 107 % of control.

`CC(=O)C(C(c1ccccc1)C1CCCc2ccccc21)N1CCOCC1` (stereo not drawn): the T/C by setting is: under setting [1], 100 % of control; under setting [11], 105 % of control; under setting [2], 109 % of control; under setting [12], 100 % of control; under setting [3], 104 % of control; (dose: 400.0 mg/kg/injection, schedule: Q04DX003 (ip), vehicle: Klucel (hydroxypropylcellulose) (HPC)) 100 % of control.

Turning to `Cc1c(N)ncc2ccccc12`, the T/C was 115 % of control (dose: 12.5 mg/kg/injection, schedule: Q04DX003 (ip), vehicle: saline); 108 % of control (dose: 25.0 mg/kg/injection, schedule: Q04DX003 (ip), vehicle: saline); 99 % of control (dose: 50.0 mg/kg/injection, schedule: Q04DX003 (ip), vehicle: saline); 118 % of control (dose: 100.0 mg/kg/injection, schedule: Q04DX003 (ip), vehicle: saline).

Turning to `O=S(/C=C/c1ccccc1)c1ccccc1` (stereo not drawn), the T/C (dose: 50.0 mg/kg/injection, schedule: Q01DX009 (ip), vehicle: other) was 104 % of control; the T/C (dose: 100.0 mg/kg/injection, schedule: Q01DX009 (ip), vehicle: other) was 100 % of control; the T/C (dose: 200.0 mg/kg/injection, schedule: Q01DX009 (ip), vehicle: other) was 104 % of control.

`CC(/C=N\N=C(N)N)=N/N=C(N)N`: the T/C reads like this: (dose: 5.0 mg/kg/injection, schedule: Q01DX010 (ip), vehicle: saline) 90 % of control; (dose: 10.0 mg/kg/injection, schedule: Q01DX010 (ip), vehicle: saline) 90 % of control and 100 % of control; (dose: 20.0 mg/kg/injection, schedule: Q01DX010 (ip), vehicle: saline) 100 % of control; (dose: 44.0 mg/kg/injection, schedule: Q01DX009 (ip), vehicle: saline) 150 % of control; (dose: 400.0 mg/kg/injection, schedule: Q04DX003 (ip), vehicle: saline) 95 % of control.

On to `Cc1cc(C)c(S(=O)(=O)ON=C2c3ccccc3-c3ccccc32)c(C)c1`, for which the T/C runs as follows: (dose: 25.0 mg/kg/injection, schedule: Q01DX001 (ip), vehicle: Klucel (hydroxypropylcellulose) (HPC)) 100 % of control; (dose: 50.0 mg/kg/injection, schedule: Q01DX001 (ip), vehicle: Klucel (hydroxypropylcellulose) (HPC)) 109 % of control; (dose: 100.0 mg/kg/injection, schedule: Q01DX001 (ip), vehicle: Klucel (hydroxypropylcellulose) (HPC)) 113 % of control; under setting [1], 105 % of control; (dose: 200.0 mg/kg/injection, schedule: Q01DX001 (ip), vehicle: Klucel (hydroxypropylcellulose) (HPC)) 95 % of control; under setting [2], 95 % of control. In addition, the T/C is 109 % of control (dose: 400.0 mg/kg/injection, schedule: Q01DX001 (ip), vehicle: Klucel (hydroxypropylcellulose) (HPC)) and 110 % of control under setting [3].
